# Test results as given in US7557085B2, “Metabolic-based methods for modulating gene expression” (Wisconsin Alumni Research Foundation, priority 2005, dated 2009).
# Tested on: seizures evoked by kindling
# Experiment: kindling model of epilepsy, afterdischarge (AD) threshold
# Assay type: in vivo, Sprague Dawley rats
# Parameters: change of AD threshold / duration of anticonvulsant effects after stopping 2-DG: dose or concentration left out as unconfirmed
# Procedure: FIG. 2 illustrates the effects on after-discharge threshold of 2-DG in a […] model of epilepsy.
# 2-deoxy-D-glucose (2-DG), a potent inhibitor of glycolysis, was administered to rats experiencing epileptic seizures evoked by kindling, which induces seizures and long-term alterations in pathways of the hippocampal formation resembling human temporal lobe epilepsy. The effects of 2-DG on seizures evoked by kindling were examined in Sprague Dawley rats that received 2-DG and were compared to a saline-injected control group. Both groups initially received twice daily kindling stimulation (1 sec trains of 1 ms bipolar constant current pulses at 60 Hz) delivered to the perforant path input to the hippocampus according to established procedures, until 3 afterdischarges (ADs) accompanied by behavioral seizures were evoked. […]
# Dosage amount and interval of administration of compounds of the present invention can be adjusted individually to reduce seizure frequency, duration or intensity. For example, doses of 250 mg/kg 2-DG or less to higher as tolerated can be used to reduce seizure frequency and minimize toxicity. Doses of as much as 2000 mg/kg 2-DG are well tolerated in rats. […] A practitioner skilled in the art can adjust dosage in the range up to 500-600 mg/kg 2-DG and the timing of administration to produce prolonged anticonvulsant and antiepileptic effects. Efficacious dosage amounts can be adjusted to about 14 mg/kg 2-DG in children and 40 mg/kg 2-DG in adults, using therapeutic efficacy measurements (e.g., reduction in frequency or severity of seizures) as a criterion for establishing effective dosage levels.
smiles,measurement,setting,value
"O=CC[C@@H](O)[C@H](O)[C@H](O)CO [2-DG, 2-deoxy-D-glucose]",AD threshold reached with repeated stimulations,"rats, 2-DG 200 mg/kg subcutaneously 30 minutes prior to each kindling stimulation, maximum intensity of the stimulation protocol",1500 μramps
same,change of AD threshold,"subcutaneous prior to each kindling stimulation that evoked AD, saline control showed a decrease",gradual increase
same,duration of anticonvulsant effects after stopping 2-DG,"twice daily for 3 months, twice daily stimulation continued",approximately 8 weeks
